Entries after “also recorded” stand apart in the source; their conditions may differ. Counter-ions that a name gives are not always drawn. k = constrained ethyl (cEt); d = 2'-deoxy (DNA)
Legend:
blast crisis CML cells = conditions: versus 2-fold difference without treatment
Description: To account for any differences in cell survival between GFP+ and GFP− cells that is solely due to differences in differentiation status, we specifically analyzed cell survival of GFP+ and GFP− leukemia cells within the lineage-negative (Lin−) fraction.
To account for any differences in cell survival between GFP^+ and GFP^− cells that is solely due to differences in differentiation status, we specifically analyzed cell survival of GFP^+ and GFP^− leukemia cells within the lineage-negative (Lin^−) fraction.
Cells were then washed and stained with antibodies against lineage markers. Apoptosis assays were performed by staining cells with Annexin-V (BD Pharmingen).

blast crisis CML = test: In vivo identification of therapy-resistant residual leukemia cells after Gleevec; set-up: species or system mouse; conditions: Gleevec 150 mg/kg daily oral gavage, NSG mice
Description: (FIG. 41A) The strategy used to track residual leukemia cells in vivo. KLS cells isolated from Msi2^GFP/Actb-DsRed mice were co-infected with BCR-ABL1 and NUP98-HOXA9 and subsequently transplanted into NOD-Scid IL2Rg^null (NSG) recipient mice. Fourteen days post-transplantation (D14), recipient mice were treated daily with Gleevec or vehicle alone (control) for […] and analyzed by flow cytometry on D20. (FIG. 41B) Average frequency of Msi2+ (% GFP^+) leukemia cells determined at various anatomic sites from mice with blast crisis CML (n=3 mice). (FIG. 41C) Extent of residual disease at different anatomic sites following Gleevec treatment.
To test this, REM2 mice were crossed with mice expressing dsRed under the control of a ubiquitous promoter (Vintersten et al., 2004). […]
To determine sites that harbor therapy-resistant cells, bone marrow-derived KLS cells were isolated and sorted from Msi2^GFP/Acb-DsRed mice and cultured in X-Vivo 15 media (Lonza) supplemented with 50 μM 2-mercaptoethanol, 10% (vol/vol) fetal bovine serum, SCF (100 ng/ml, R&D Systems) and TPO (20 ng/ml, R&D Systems). […] Fifteen days post-transplantation (D15), recipient mice were treated daily with Gleevec (150 mg/kg) or H2O (control) via oral gavage for five consecutive days (D15 to D19) and analyzed by flow cytometry on D20.

MSI1 RNA = test: MSI1 expression after ASO free uptake (q-RT-PCR); format: cell-based, human; conditions: 24 hours, MIA PaCa-2 cells
Description: (FIG. 8 F to FIG. 8H) Real time PCR analysis of Msi expression following ASO free uptake in MIA PaCa-2 cells. MIA PaCa-2 cells were treated with 2 Gen 2.5 cEt ASOx target MSI1 or Control Gen 2.5 ASO for 24 hours, RNA was isolated and target knockdown (MSI1 RNA level) was determined by q-RT-PCR. IC50 values for each ASO were calculated using GraphPad Prism software; each treatment condition was performed in triplicate. (FIG. 8I) Colony formation assay in MSI1 ASO-treated MIA PaCa-2 cells after weekly delivery of control or MSI1 ASOs; colonies were counted after 4 weeks; n=3 for each ASO tested. (FIG. 8J) In vivo tracking of tumor volume in MSI1 ASO treated MIA PaCa-2 tumors with intratumoral delivery of control or MSI1 ASOs every day for 5 days followed by 2 days off; n=5 for each ASO tested. Nonlinear regression was used to determine the difference in slope between Control ASO and MSI1-ASO-1 (p<0.001). (FIG. 8K) In vivo tracking of tumor volume of primary KP^f/fC tumors with intratumoral delivery of control ASO or MSI1 ASOs following tumor establishment (n=4). […]
To identify human Msi ASO inhibitors, rapid throughput screens were performed to identify effective ASOs as previously described (Wang, J. C. Y. & Dick, J. E. Cancer stem cells: lessons from leukemia. Trends in Cell Biology 15, 494-501 (2005); Reya, T., Morrison, S. J., Clarke, M. F. & Weissman, I. L. Stem cells, cancer, and cancer stem cells. Nature 414(6859):105-11 (2001); Carroll, J. B. et al. Potent and Selective Antisense Oligonucleotides Targeting Single-Nucleotide Polymorphisms in the Huntington Disease Gene/Allele-Specific Silencing of Mutant Huntingtin. Molecular Therapy 19, 2178-2185 (2009); Samuel, V. T. et al. Targeting foxo1 in mice using antisense oligonucleotide improves hepatic and peripheral insulin action. […] Gene expression was assessed with taqman probes for MSI1 and MSI2. […] Colonies were counted 21 days after the first ASO treatment. […] Tumor measurements were recorded every 3 days. […]

pancreatic cancer = conditions: cited from earlier work
[1] = tested on: Msi2 Reporter KPf/fC cells; test: In vitro gemcitabine treatment with live imaging of Msi2 reporter KPf/fC cells; format: cell-based, mouse; conditions: 10 μM gemcitabine, imaged up to 48 h
[2] = tested on: REM2-KPf/fC pancreatic tumors; test: In vivo drug therapy of tumor-bearing REM2-KPf/fC mice, reporter frequency by flow cytometry; set-up: species or system mouse; conditions: increasing doses (200 or 500 mg/kg IP)
Text: The development of the reporter gave us a unique opportunity to determine whether it could be used as a new image based tool to identify therapy resistant cells in pancreatic cancer. The chemotherapeutic agent gemcitabine remains the standard of care for adjuvant treatment of pancreatic cancer and is the most commonly used single agent in the treatment of advanced disease. Despite this, clinical response rates to gemcitabine are below 10% and it fails to prevent relapse after surgery in 85% of patients. Gemcitabine was delivered to tumor-bearing REM2-KPf/fC mice in vivo at increasing doses to determine the composition of residual disease. […] Importantly, these experiments identify Msi reporter positive cells as the predominant gemcitabine resistant population.
9-10 week old REM2-KP^f/fC mice were treated with Gemcitabine alone or in combination with Crizotinib or iBet762 for 6 days. On day 6, tumors were removed, dissociated (as described above), counted for total cellular content, stained with anti-mouse EpCAM antibody and analyzed for reporter expression by flow cytometry. Gemcitabine (Sigma, G6423) was resuspended in H2O at 20 mg/ml and delivered at 200 mg/kg or 500 mg/kg by IP injection twice over 6 days (on day 0 and 3). […]

Cc1ccc(NC(=O)c2ccc(CN3CCN(C)CC3)cc2)cc1Nc1nccc(-c2cccnc2)n1 [imatinib, imatinib mesylate]
Increase in difference in cell survival between Lin− GFP+ and Lin− GFP− cells following imatinib treatment (blast crisis CML cells): 3 fold
GFP+ leukemic cell population remaining following imatinib treatment (blast crisis CML; calvarium, femur, tibia, sternum or pelvis): ~37%
GFP+ leukemic cell population remaining following imatinib treatment (blast crisis CML; spleen): ~60%

5′-GGCTACTACGCCGTCA-3′ (sugars from the 5' end k3 d10 k3, backbone and methylation of C not given here) [Control ASOs]
MSI1 expression in cell lines after ASO treatment (MSI1 RNA): did not suppress MSI1 expression

5′-TTACATATGATACAGG-3′ (sugars from the 5' end k3 d10 k3, backbone and methylation of C not given here) [ASO-2]
MSI1 expression in cell lines after ASO treatment (MSI1 RNA): inhibited MSI1 expression

Nc1ccn([C@@H]2O[C@H](CO)[C@@H](O)C2(F)F)c(=O)n1 [gemcitabine, Gemcitabine]
Patients in whom it fails to prevent relapse after surgery (pancreatic cancer; adjuvant): 85%
Clinical response rates (pancreatic cancer; pancreatic cancer patients): below 10%
Msi2 expression in Msi2 reporter− KPf/fC cells after in vitro treatment [1]: do not turn on Msi2 expression
Effect on GFP+ (Msi2 reporter+) tumor cells [2]: resistant and remained viable; also recorded: preferential survival
Effect on GFP− (Msi2 reporter−) tumor cells [2]: sensitive to gemcitabine and were preferentially eliminated

From patent publication US10578608B1, “Tools to detect, track and target cancer cells in vivo” (The Regents of the University of California, priority 2015, dated 2020)
